Laboratory results as given in US20240148821A1, “PHARMACEUTICAL USE OF CYCLIC PEPTIDE COMPOUND” (CHUGAI SEIYAKU KABUSHIKI KAISHA, priority 2021, published 2024).
Each block holds one molecule with its values, some of them ahead of it. Numbered stars: 1 amine (or outer) side, 2 acyl side, 3 side chain; on linkers, the order of the positions; unused ones are H or OH. Bridge positions count the residues as written; N and C are the ends. Square brackets hold non-standard residues; d marks the D form. Peptide text beside a SMILES is read from it. * marks the point of attachment. hPhe(3,5-F2-4-CF3) = N[C@@H](CCc1cc(F)c(C(F)(F)F)c(F)c1)C(=O)O; hPhe(3-Cl-4-CF3) = N[C@@H](CCc1ccc(C(F)(F)F)c(Cl)c1)C(=O)O; NMePhe(4-CF3) = CN[C@@H](Cc1ccc(C(F)(F)F)cc1)C(=O)O; NMePhe(4-Me) = CN[C@@H](Cc1ccc(C)cc1)C(=O)O; NMedβ3hAla = C[C@H](CC(=O)[*:2])N(C)[*:1]; NMeGly(cPent) = CN[C@H](C(=O)O)C1CCCC1; Pro(4,4-F2) = O=C(O)[C@@H]1CC(F)(F)CN1; NMe3Pal = CN[C@@H](Cc1cccnc1)C(=O)O; NMeCha = CN[C@@H](CC1CCCCC1)C(=O)O; Hyp = O=C(O)[C@@H]1C[C@@H](O)CN1; NMeI = CC[C@H](C)[C@H](NC)C(=O)O; NMeD = CN[C@@H](CC(=O)O)C(=O)O; NMeL = CN[C@@H](CC(C)C)C(=O)O; d(β3hA) = C[C@@H](N)CC(=O)O; Azetidin(1-yl) = C1CN(*)C1; NMeC = CN[C@@H](CS)C(=O)O; Morpholide = C1CN(*)CCO1; NMeA = CN[C@@H](C)C(=O)O; NMeAib = CNC(C)(C)C(=O)O; dNMeA = CN[C@H](C)C(=O)O; Ac5c = NC1(C(=O)O)CCCC1; Aze = O=C(O)[C@@H]1CCN1; NEtG = CCNCC(=O)O; Sar = CNCC(=O)O

Key:
[1] = target: protein-protein interaction between Kras and SOS1 (biotin-tagged human Kras loaded with GDP, His-tagged human SOS1) (Homo sapiens (Human), UniProt P01116, G12D); experiment: Protein-protein interaction inhibition between Kras and SOS1 (KrasG12D-SOS PPI) using AlphaScreen; format: biochemical; conditions: AlphaScreen; biotin-tagged human Kras loaded with GDP, His-tagged human SOS1; read-out: KRAS G12D-SOS PPI IC50;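 further: kras produced in E. coli, Ni-coupled donor beads and streptavidin acceptor beads, excitation 680 nm with emission detected at 520–620 nm via singlet oxygen transfer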
[2] = tested on: Human pancreatic cancer cell line AsPC-1 (G12D mutation Kras); experiment: AsPC-1 cell growth inhibition (AsPC-1 CGI); format: cell-based; conditions: read-out: AsPC-1 cell growth inhibition, 50% growth inhibitory concentration (IC50 value); 96 hours, CellTiter-Glo, values classified in ranges

SMILES: CC[C@H](C)[C@@H]1NC(=O)[C@H](C)N(C)C(=O)C[C@@H](C)NC(=O)[C@H](C2CCCC2)N(C)C(=O)C2(CCCC2)NC(=O)[C@@H]2CCCN2C(=O)[C@H](CCc2ccc(C(F)(F)F)c(Cl)c2)NC(=O)[C@@H](C)N(C)C(=O)[C@H](Cc2cccnc2)N(C)C(=O)[C@@H]2CCN2C(=O)[C@H](C)N(C)C1=O [Compound 1011] (cyclo([Ac5c][NMeGly(cPent)][d(β3hA)][NMeA]I[NMeA][Aze][NMe3Pal][dNMeA][hPhe(3-Cl-4-CF3)]P))
- IC50 [1]: 38 nM
- IC50 [2]: > 500 nM

SMILES: CC[C@H](C)[C@@H]1NC(=O)[C@H](CC(C)C)N(C)C(=O)C[C@@H](C(=O)N2CCOCC2)N(C)C(=O)[C@H](C2CCCC2)N(C)C(=O)C2(CCCC2)NC(=O)[C@@H]2CCCN2C(=O)[C@H](CCc2ccc(C(F)(F)F)c(Cl)c2)NC(=O)CN(C)C(=O)[C@H](C2CCCC2)N(C)C(=O)[C@@H]2CCN2C(=O)[C@H](C)N(C)C1=O [Compound 302] ([NMeL]I[NMeA][Aze][NMeGly(cPent)][Sar][hPhe(3-Cl-4-CF3)]P[Ac5c][NMeGly(cPent)][NMeD]-Morpholide; lactam N-11)
- IC50 [1]: 0.68 nM
- IC50 [2]: ≤ 20 nM

SMILES: CC[C@H](C)[C@@H]1NC(=O)[C@H](C)N(C)C(=O)C[C@@H](C)N(C)C(=O)[C@H](CC(C)C)NC(=O)C(C)(C)N(C)C(=O)[C@H](CC(C)C)NC(=O)[C@H](CCc2ccc(C(F)(F)F)c(Cl)c2)NC(=O)CN(C)C(=O)[C@H](Cc2ccc(C(F)(F)F)cc2)N(C)C(=O)CN(C)C(=O)CN(C)C1=O [Compound 1397] (cyclo(I[Sar][Sar][NMePhe(4-CF3)][Sar][hPhe(3-Cl-4-CF3)]L[NMeAib]L[NMedβ3hAla][NMeA]))
- IC50 [1]: 6.4 nM
- IC50 [2]: > 500 nM

SMILES: CC[C@H](C)[C@@H]1NC(=O)[C@H](CC(C)C)N(C)C(=O)C[C@@H](C(=O)N2CCOCC2)N(C)C(=O)[C@H](C2CCCC2)N(C)C(=O)C2(CCCC2)NC(=O)[C@@H]2CCCN2C(=O)[C@H](CCc2ccc(C(F)(F)F)c(Cl)c2)NC(=O)CN(CC)C(=O)[C@H](CC2CCCCC2)N(C)C(=O)[C@@H]2CCN2C(=O)[C@H](C)N(C)C1=O [Compound 1272] ([NMeL]I[NMeA][Aze][NMeCha][NEtG][hPhe(3-Cl-4-CF3)]P[Ac5c][NMeGly(cPent)][NMeD]-Morpholide; lactam N-11)
- IC50 [1]: 2 nM
- IC50 [2]: ≤ 20 nM

- IC50 [1]: 160 nM
- IC50 [2]: > 500 nM
SMILES: CC[C@H](C)[C@@H]1NC(=O)[C@H](CC(C)C)N(C)C(=O)CSC[C@@H](C(=O)N(C)C)N(C)C(=O)[C@H]([C@@H](C)CC)N(C)C(=O)C2(CCCC2)NC(=O)[C@@H]2CCCN2C(=O)[C@H](CCc2ccc(C(F)(F)F)c(Cl)c2)NC(=O)CN(C)C(=O)[C@H](Cc2ccc(C)cc2)N(C)C(=O)CN(C)C(=O)CN(C)C1=O [Compound 2178] ({CH2CO}-[NMeL]I[Sar][Sar][NMePhe(4-Me)][Sar][hPhe(3-Cl-4-CF3)]P[Ac5c][NMeI][NMeC]-NMe2; thioether N-11)

SMILES: CC[C@H](C)[C@@H]1NC(=O)[C@H](CC(C)C)N(C)C(=O)C[C@@H](C(=O)N2CCOCC2)N(C)C(=O)[C@H]([C@@H](C)CC)N(C)C(=O)C2(CCCC2)NC(=O)[C@@H]2CC(F)(F)CN2C(=O)[C@H](CCc2cc(F)c(C(F)(F)F)c(F)c2)NC(=O)CN(C)C(=O)[C@H](Cc2ccc(C(F)(F)F)cc2)N(C)C(=O)[C@@H]2CCN2C(=O)[C@H](C)N(C)C1=O [Compound 1348] ([NMeL]I[NMeA][Aze][NMePhe(4-CF3)][Sar][hPhe(3,5-F2-4-CF3)][Pro(4,4-F2)][Ac5c][NMeI][NMeD]-Morpholide; lactam N-11)
- IC50 [1]: 0.62 nM
- IC50 [2]: ≤ 20 nM

SMILES: CCO[C@@H]1C[C@H]2C(=O)NC3(CCCC3)C(=O)N(C)[C@@H](C3CCCC3)C(=O)N(C)[C@H](C(=O)N3CCC3)CC(=O)N(C)[C@@H](CC(C)C)C(=O)N[C@@H]([C@@H](C)CC)C(=O)N(C)[C@@H](C)C(=O)N3CC[C@H]3C(=O)N(C)[C@@H](CC3CCCCC3)C(=O)N(C)CC(=O)N[C@@H](CCc3ccc(C(F)(F)F)c(Cl)c3)C(=O)N2C1 [Compound 1158] ([NMeL]I[NMeA][Aze][NMeCha][Sar][hPhe(3-Cl-4-CF3)][Hyp](Et)[Ac5c][NMeGly(cPent)][NMeD]-{Azetidin(1-yl)}; lactam N-11)
- IC50 [1]: 0.52 nM
- IC50 [2]: ≤ 20 nM

SMILES: CC[C@H](C)[C@@H]1NC(=O)[C@H](C)N(C)C(=O)C[C@@H](C)NC(=O)[C@H](C2CCCC2)N(C)C(=O)C2(CCCC2)NC(=O)[C@@H]2CCCN2C(=O)[C@H](CCc2ccc(C(F)(F)F)c(Cl)c2)NC(=O)[C@@H](C)N(C)C(=O)[C@H](Cc2ccc(C)cc2)N(C)C(=O)[C@@H]2CCN2C(=O)CN(C)C1=O [Compound 1461] (cyclo([Ac5c][NMeGly(cPent)][d(β3hA)][NMeA]I[Sar][Aze][NMePhe(4-Me)][dNMeA][hPhe(3-Cl-4-CF3)]P))
- IC50 [1]: 37 nM
- IC50 [2]: > 500 nM
